Experimental data published in patent US6020341A, “Enediyne quinone imines and methods of preparation and use thereof” (priority 1997, dated 2000).
Like-named read-outs stand apart in the source and are kept apart here.

Legend:
CCRF-CEM/VM-1 cells = test: Cytotoxicity, CCRF-CEM/VM-1; assay type: cell-based, human; settings: for IC50 / IC90: Homo sapiens, CCRF-CEM; for IC90: read-out: Cytotoxic Concentration IC90
Source text: (§1) | cell growth by 50% (IC50) in μM.

[1] = system: Human promyelocytic leukemic cell (HL-60); test: Cytotoxicity, HL-60; assay type: cell-based
Source text: as §1

[2] = system: Human acute lymphoblastic T cells (CCRF-CEM); test: Cytotoxicity, CCRF-CEM; assay type: cell-based; settings: for IC50 / IC90: Homo sapiens, CCRF-CEM; for IC90: read-out: Cytotoxic Concentration IC90
Source text: as §1

CCRF-CEM/VBL cells = test: Cytotoxicity, CCRF-CEM resistant to vinblastine; assay type: cell-based, human; settings: for IC50 / IC90: Homo sapiens, CCRF-CEM; for IC90: read-out: Cytotoxic Concentration IC90
Source text: as §1

[3] = system: Human breast adenocarcinoma cells (SK-Br-3); test: Cytotoxicity, SK-Br-3; assay type: cell-based
Source text: as §1

[4] = system: Human testicular teratocarcinoma cells (833K); test: Cytotoxicity, 833K; assay type: cell-based
Source text: as §1

[5] = system: Chinese hamster lung cells (DC-3F); test: Cytotoxicity, DC-3F; assay type: cell-based; settings: for IC50 / IC90: Cricetulus griseus, DC3F; for IC90: read-out: Cytotoxic Concentration IC90
Source text: as §1

[6] = system: Chinese hamster lung cells resistant to actinomycin D (DC-3F/ADII); test: Cytotoxicity, DC-3F/ADII; assay type: cell-based; settings: for IC50 / IC90: Cricetulus griseus, DC3F; for IC90: read-out: Cytotoxic Concentration IC90
Source text: as §1

MT2 cells = test: Cytotoxicity, MT2; assay type: cell-based; settings: Table 15, MT2
[7] = Table 14, vinblastine-resistant (VLB100)
[8] = Table 3, CCRF-CEM/VBL, EQI-6 = (1)
[9] = Table 3, CCRF-CEM/VM-1, EQI-6 = (1)
[10] = Table 4, DC-3F/ADII, EQI-6 = (1)

For `COc1cc([C@@H]2c3cc4c(cc3[C@@H](O[C@@H]3O[C@@H]5CO[C@@H](c6cccs6)O[C@H]5[C@H](O)[C@H]3O)[C@H]3COC(=O)[C@H]23)OCO4)cc(OC)c1O` [VM26], the “resistance of cell line to VM26” value (CCRF-CEM/VM-1 cells; CCRF/VM1 versus CCRF/CEM) was 50 fold.

`COc1cc(NS(C)(=O)=O)ccc1Nc1c2ccccc2nc2ccccc12` [m-AMSA, 4'-(9-acridinylamino)methanesulfon-m-anisidide] was tested, and the IC50 ([1]; Homo sapiens, HL-60, Table 1, HL-60, read-out: IC50) was 38.8 nM, the IC50 ([1]; Homo sapiens, HL-60, Table 2, HL60, read-out: concentration required to inhibit cell growth by 50% (IC50)) was 39 nM and the IC50 ([1]; Homo sapiens, HL-60, Table 3, HL-60, read-out: Cytotoxic Concentration IC50) was 38.8 nM. The IC90 ([1]; Homo sapiens, HL-60, Table 3, HL-60, read-out: Cytotoxic Concentration IC90) was 176 nM, the “Cytotoxic Concentration IC95” value ([1]; Table 3, HL-60) was 294 nM and the “ratio of IC50 to EQI-6 (in parentheses)” value ([1]; Table 3, HL-60, EQI-6 = (1)) was 66.9 ×. The “ratio of IC90 to EQI-6 (in parentheses)” value ([1]; Table 3, HL-60, EQI-6 = (1)) was 67.7 ×, the “ratio of IC95 to EQI-6 (in parentheses)” value ([1]; Table 3, HL-60, EQI-6 = (1)) was 66.8 × and the IC50 ([2]; Table 1, CCRF-CEM, read-out: IC50) was 199 nM. It also gave an IC50 ([2]; Table 2, CCRF/CEM, read-out: concentration required to inhibit cell growth by 50% (IC50)) of 199 nM, an IC50 ([2]; Table 3, CCRF-CEM, read-out: Cytotoxic Concentration IC50) of 199 nM and an IC90 ([2]; Table 3, CCRF-CEM) of 1540 nM. For the same compound, the IC50 ([2]; Table 14, CCRF-CEM, read-out: Cytotoxic Concentration IC50) was 129 nM, the IC90 ([2]; Table 14, CCRF-CEM) was 755 nM and the “Cytotoxic Concentration IC95” value ([2]; Table 3, CCRF-CEM) was 3101 nM. The “ratio of IC50 to EQI-6 (in parentheses)” value ([2]; Table 3, CCRF-CEM, EQI-6 = (1)) was 398 ×, the “ratio of IC90 to EQI-6 (in parentheses)” value ([2]; Table 3, CCRF-CEM, EQI-6 = (1)) was 702 × and the “ratio of IC95 to EQI-6 (in parentheses)” value ([2]; Table 3, CCRF-CEM, EQI-6 = (1)) was 838 ×. The “Cytotoxic Concentration IC95” value ([2]; Table 14, CCRF-CEM) was 1378 nM, the IC50 (CCRF-CEM/VBL cells; Table 2, CCRF/VBL (MDR/pg-p), read-out: concentration required to inhibit cell growth by 50% (IC50)) was 565 nM and the IC50 (CCRF-CEM/VBL cells; Table 3, CCRF-CEM/VBL, read-out: Cytotoxic Concentration IC50) was 565 nM. For the same compound, the IC90 (CCRF-CEM/VBL cells; Table 3, CCRF-CEM/VBL) was 2460 nM, the IC50 (CCRF-CEM/VBL cells; Table 14, vinblastine-resistant (VLB100), read-out: Cytotoxic Concentration IC50) was 964 nM and the IC90 (CCRF-CEM/VBL cells; [7]) was 7230 nM. The “Cytotoxic Concentration IC95” value (CCRF-CEM/VBL cells; Table 3, CCRF-CEM/VBL) was 4045 nM, the “ratio of IC50 to EQI-6 (in parentheses)” value (CCRF-CEM/VBL cells; [8]) was 298.9 × and the “ratio of IC90 to EQI-6 (in parentheses)” value (CCRF-CEM/VBL cells; [8]) was 396 ×. The “ratio of IC95 to EQI-6 (in parentheses)” value (CCRF-CEM/VBL cells; [8]) was 434.9 ×, the “Cytotoxic Concentration IC95” value (CCRF-CEM/VBL cells; [7]) was 14353 nM and the IC50 (CCRF-CEM/VM-1 cells; Table 2, CCRF/VM-1 (MDR/TopoII), read-out: concentration required to inhibit cell growth by 50% (IC50)) was 1710 nM. The IC50 (CCRF-CEM/VM-1 cells; Table 3, CCRF-CEM/VM-1, read-out: Cytotoxic Concentration IC50) was 1710 nM, the IC90 (CCRF-CEM/VM-1 cells; Table 3, CCRF-CEM/VM-1) was 3570 nM and the IC50 (CCRF-CEM/VM-1 cells; Table 14, CCRF-CEM/VM-1, read-out: Cytotoxic Concentration IC50) was 4050 nM. For the same compound, the IC90 (CCRF-CEM/VM-1 cells; Table 14, CCRF-CEM/VM-1) was 11000 nM, the “Cytotoxic Concentration IC95” value (CCRF-CEM/VM-1 cells; Table 3, CCRF-CEM/VM-1) was 4586 nM and the “ratio of IC50 to EQI-6 (in parentheses)” value (CCRF-CEM/VM-1 cells; [9]) was 902.1 ×. For the same compound, the “ratio of IC90 to EQI-6 (in parentheses)” value (CCRF-CEM/VM-1 cells; [9]) was 401.3 ×, the “ratio of IC95 to EQI-6 (in parentheses)” value (CCRF-CEM/VM-1 cells; [9]) was 303 × and the “Cytotoxic Concentration IC95” value (CCRF-CEM/VM-1 cells; Table 14, CCRF-CEM/VM-1) was 15391 nM. It also gave an IC50 ([3]; Homo sapiens, SK-BR-3, Table 2, SK-Br-3 (Breast), read-out: concentration required to inhibit cell growth by 50% (IC50)) of 551 nM, an IC50 ([3]; Homo sapiens, SK-BR-3, Table 4, SK-Br-3, read-out: Cytotoxic Concentration IC50) of 551 nM and an IC90 ([3]; Homo sapiens, SK-BR-3, Table 4, SK-Br-3, read-out: Cytotoxic Concentration IC90) of 84100 nM. For the same compound, the “Cytotoxic Concentration IC95” value ([3]; Table 4, SK-Br-3) was 464700 nM, the “ratio of IC50 to EQI-6 (in parentheses)” value ([3]; Table 4, SK-Br-3, EQI-6 = (1)) was 16.2 × and the “ratio of IC90 to EQI-6 (in parentheses)” value ([3]; Table 4, SK-Br-3, EQI-6 = (1)) was 449.7 ×. For the same compound, the “ratio of IC95 to EQI-6 (in parentheses)” value ([3]; Table 4, SK-Br-3, EQI-6 = (1)) was 139.7 ×, the IC50 ([4]; Homo sapiens, 833K, Table 2, 833K (Testicular), read-out: concentration required to inhibit cell growth by 50% (IC50)) was 43 nM and the IC50 ([4]; Homo sapiens, 833K, Table 4, 833k, read-out: Cytotoxic Concentration IC50) was 43 nM. The IC90 ([4]; Homo sapiens, 833K, Table 4, 833k, read-out: Cytotoxic Concentration IC90) was 189 nM, the “Cytotoxic Concentration IC95” value ([4]; Table 4, 833k) was 311 nM and the “ratio of IC50 to EQI-6 (in parentheses)” value ([4]; Table 4, 833k, EQI-6 = (1)) was 6.14 ×. The “ratio of IC90 to EQI-6 (in parentheses)” value ([4]; Table 4, 833k, EQI-6 = (1)) was 7.56 ×, the “ratio of IC95 to EQI-6 (in parentheses)” value ([4]; Table 4, 833k, EQI-6 = (1)) was 7.97 × and the IC50 ([5]; Table 2, DC-3F, read-out: concentration required to inhibit cell growth by 50% (IC50)) was 8.8 nM. The IC50 ([5]; Table 4, DC-3F, read-out: Cytotoxic Concentration IC50) was 8.8 nM, the IC90 ([5]; Table 4, DC-3F) was 53 nM and the IC50 ([5]; Table 13, DC-3F, read-out: Cytotoxic Concentration IC50) was 4 nM. The IC90 ([5]; Table 13, DC-3F) was 17 nM, the “Cytotoxic Concentration IC95” value ([5]; Table 4, DC-3F) was 97.5 nM and the “ratio of IC50 to EQI-6 (in parentheses)” value ([5]; Table 4, DC-3F, EQI-6 = (1)) was 4.9 ×. For the same compound, the “ratio of IC90 to EQI-6 (in parentheses)” value ([5]; Table 4, DC-3F, EQI-6 = (1)) was 4.8 ×, the “ratio of IC95 to EQI-6 (in parentheses)” value ([5]; Table 4, DC-3F, EQI-6 = (1)) was 4.9 × and the “Cytotoxic Concentration IC95” value ([5]; Table 13, DC-3F) was 28 nM. The IC50 ([6]; Table 2, DC-3F/ADII (MDR/Actinomycin D), read-out: concentration required to inhibit cell growth by 50% (IC50)) was 71 nM, the IC50 ([6]; Table 4, DC-3F/ADII, read-out: Cytotoxic Concentration IC50) was 70.7 nM and the IC90 ([6]; Table 4, DC-3F/ADII) was 825 nM. For the same compound, the IC50 ([6]; Table 13, DC-3F/ADII, read-out: Cytotoxic Concentration IC50) was 33 nM, the IC90 ([6]; Table 13, DC-3F/ADII) was 180 nM and the “Cytotoxic Concentration IC95” value ([6]; Table 4, DC-3F/ADII) was 1902 nM. The “ratio of IC50 to EQI-6 (in parentheses)” value [6, 10] was 12 ×, the “ratio of IC90 to EQI-6 (in parentheses)” value [6, 10] was 53.6 × and the “ratio of IC95 to EQI-6 (in parentheses)” value [6, 10] was 88.9 ×. The “Cytotoxic Concentration IC95” value ([6]; Table 13, DC-3F/ADII) was 321 nM, the IC50 (MT2 cells; Homo sapiens, read-out: Cytotoxic Concentration IC50) was 19 nM and the IC90 (MT2 cells; Homo sapiens, read-out: Cytotoxic Concentration IC90) was 38 nM. For the same compound, the “Cytotoxic Concentration IC95” value (MT2 cells) was 48 nM.

With `CC[C@]1(O)C[C@@H]2CN(CCc3c([nH]c4ccccc34)[C@@](C(=O)OC)(c3cc4c(cc3OC)N(C)[C@H]3[C@@](O)(C(=O)OC)[C@H](OC(C)=O)[C@]5(CC)C=CCN6CC[C@]43[C@@H]65)C2)C1` [vinblastin] the “resistance of cell line to vinblastin” value (CCRF-CEM/VBL cells; CCRF/VBL100 versus CCRF/CEM) was 59 fold.

actinomycin D was tested, and the “resistance of cell line to actinomycin D” value ([6]; DC3F/ADII versus DC3F) was 32 fold.
